Results from patent US7169787B2, “7-azaindoles, use thereof as phosphodiesterase 4 inhibitors and method for producing the same” (Elbion AG, priority 2000, dated 2007).

What was measured:
PDE 4 = test: Inhibition of phosphodiesterase 4 (enzyme preparation from human PMNL, [3H]-cAMP); type: biochemical; details: PDE 4 from human PMNL cytosol, 0.5 μM [3H]-cAMP
Method: The PDE 4 activity is determined in enzyme preparations from human polymorphonuclear […] (PMNL) and the PDE 2, 3 and 5 activity is determined with PDE from human thrombocytes. Human blood was anti-coagulated with citrate. By centrifuging at 700×g for 20 minutes at room temperature, the thrombocyte-rich plasma in the supernatant is separated from the erythrocytes and leukocytes. The thrombocytes are lysed by ultrasound and used in the PDE 3 and PDE 5 assays. For the determination of the PDE 2 activity, the cytosolic thrombocyte fraction is purified on an anionic exchange column by means of NaCl gradients and the PDE 2 peak is obtained for the assay. The PMNLs for the PDE 4 determination are isolated by a subsequent dextran sedimentation, followed by a gradient centrifugation with Ficoll-Paque. After the cells have been washed twice, the erythrocytes, still contained, are lysed within 6 minutes at 4° C. by the addition of 10 mL of hypotonic buffer (155 mM of NH4Cl, 10 mM of NaHCO3, 0.1 mM of EDTA, pH=7.4). The PMNLs, which are still intact, are washed twice with PBS and lysed with ultrasound. The supernatant of a one-hour centrifugation at 4° C. at 48,000×g contains the cytosolic fraction of the PDE 4 and is used for the PDE 4 measurements.
The phosphodiesterase activity is determined using the method described by Thompson et al. with some modifications (Thompson, W. J. and M. M. Appleman, Assay of cyclic nucleotide phosphodiesterase and resolution of multiple molecular forms of the enzyme, Adv. Cycl. Nucl. Res. 1979, 10, 69–92).
The reaction mixtures contain 50 mM of tris hydrochloride (pH 7.4), 5 mM of magnesium chloride, the inhibitors in various concentrations, the corresponding enzyme preparation as well as the further components necessary for determining the individual isoenzymes (see below). The reaction is started by the addition of the substrate, 0.5 μM of [^3H]-cAMP or [^3H]-cGMP (approximately 6000 CPM per test). The final volume is […]. Test substances are mixed as stock solutions in DMSO. The DMSO concentration in the reaction mixture is 1% v/v. The PDE activity is not affected by this concentration of DMSO. After the reaction is started by the addition of substrate, samples are incubated for 30 minutes at 37° C. The reaction is stopped by heating the test tubes for 2 minutes at 110° C. The samples remain for a further 10 minutes in ice. The addition of 30 μL of 5′-nucleotidase (1 mg/mL, from a poisonous snake suspension from Crotalus adamanteus) is followed by a 10-minutes incubation at 37° C. The samples are stopped on ice, in each case 400 μL of a mixture of Dowex, water and ethanol (1+1+1) is added, mixed well and incubated once again for 15 minutes on ice. The reaction vessels are centrifuged for 20 minutes at 3000×g. Aliquots of the supernatant (200 μL) are transferred directly to scintillation vessels. After the addition of 3 mL of scintillator, the samples are measured in the beta counter.
[^3H]-cAMP is used as substrate for the determination of the PDE 4, 3 and 2 activity and [^3H]-cGMP is used as substrate for the determination of the PDE 5 activity. The enzyme activities, which are nonspecific in each case, are determined in the presence of 100 μM of Rolipram for the determination of PDE 4 and in the presence of 100 μM of IBMX for the determination of the PDE 3 and 5 and subtracted from the test values. The incubation formulations of the PDE 3 assays contained 10 μM of Rolipram, in order to inhibit possible contaminations by PDE 4. The PDE 2 is tested with an SPA assay of the Amersham Company. The assay is carried out in the presence of the activator of the PDE 2 (5 μM of cGMP).

Lewis Rats = test: Inhibition of the lipopolysaccharide (LPS)-induced lung neutrophilia; type: in vivo, rat; details: 1 mg/kg p.o., 2 h before LPS provocation; BAL 6 h after provocation
Method: The inhibition of pulmonary neutrophil infiltration by the inventive substances is tested on male Lewis Rats (250–350 g). On the day of the experiments, the animals are placed individually in open 1 L Plexiglas boxes, which are connected to a head-nose exposure device. The animals are exposed to an aerosol of a lipopolysaccharide suspension (100 μg LPS/mL of 0.1% hydroxylamine solution) in PBS (LPS provocation). The LPS/hydroxylamine aerosol is nebulized by a nebulizer (Bird Micronebulizer, Palm Springs Calif., USA), which is operated with compressed air (0.2 MPa). The exposure time is 40 minutes, normal controls being nebulized also for 40 minutes with an aerosol of 0.1% hydroxylamine solution in PBS.
Six hours after the LPS provocation, there is a maximum, massive migration of neutrophil granulocytes into the lungs of the animals. At this time, the animals are anesthetized with an excess of ethyl urethane (1.5 g/kg of body weight i.p.) and a bronchoalveolar lavage (BAL) with 3×4 mL of Hank's balance solution is carried out. The total cell count and the number of neutrophil granulocytes of the pooled BAL liquid are subsequently determined with an automatic cell differentiation instrument (Bayer Diagnostics Technicon HIE). For each animal, the neutrophiles (NEUTRO) in the BAL are calculated in millions/animal: NEUTRO/μl×BAL recovery (mL)=NEUTRO/animal.
For each test, 2 control groups were also run (nebulization with 0.1% hydroxylamine solution in PBS and nebulization with 100 μg LPS/mL of 0.1% hydroxylamine solution in PBS).
The percentage inhibition of the neutrophilia of the experimental group, treated with substance, was calculated according to the following formula: {((LPSC−SC)−(LPSD−SC))/(LPSC−SC)}×100%=% inhibition SC=vehicle-treated control group challenged with 0.1% hydroxylamine solution; LPSC=vehicle-treated control group challenged with LPS (100 μg/mL 0.1% hydroxylamine solution); LPSD=substance-treated experimental group challenged with LPS (100 μg/mL 0.1% hydroxylamine solution) […]

## Cc1ccc(Cn2cc(C(=O)C(=O)Nc3c(Cl)cncc3Cl)c3cccnc32)cc1 [Example 22]
PDE 4
  IC50: 2 nM
Lewis Rats
  Inhibition of neutrophilia (table titled Inhibition of Eosinophilia): 64%
other
  melting point: 176 to 178 °C
